Columns and labels:
Format in all cases: in vivo
[1] = tested on: barnyardgrass (Echinochloa crus-galli); assay: Test A preemergence soil spray, visual injury rating 0-100; details: 10 days
How it was run: (§1)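 Rating: visual, day 10, untreated plants as reference, 0 no effect to 100 full control. Plants were in loam-sand and were treated either preemergence via directed soil spray or postemergence at the one- to two-leaf stage.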

[2] = tested on: blackgrass (Alopecurus myosuroides); assay: as above; details: 10 days
How it was run: as §1

corn (Zea mays) [3] = assay: as above; details: 10 days
How it was run: as §1

[4] = tested on: green foxtail (Setaria viridis); assay: as above; details: 10 days
How it was run: as §1

kochia (Bassia scoparia) [5] = assay: as above; details: 10 days
How it was run: as §1

[6] = tested on: oat, wild (wild oat, Avena fatua); assay: as above; details: 10 days
How it was run: as §1

[7] = tested on: ragweed (common ragweed, Ambrosia artemisiifolia); assay: as above; details: 10 days
How it was run: as §1

[8] = tested on: ryegrass, Italian (italian ryegrass, Lolium multiflorum); assay: as above; details: 10 days
How it was run: as §1

soybean (Glycine max) [9] = assay: as above; details: 10 days
How it was run: as §1

[10] = tested on: wheat (Triticum aestivum); assay: as above; details: 10 days
How it was run: as §1

[11] = tested on: barnyardgrass (Echinochloa crus-galli); assay: Test A postemergence application, visual injury rating 0-100
How it was run: as §1

[12] = tested on: blackgrass (Alopecurus myosuroides); assay: as above
How it was run: as §1

corn (Zea mays) [13] = assay: as above
How it was run: as §1

[14] = tested on: galium (catchweed bedstraw, Galium aparine); assay: as above
How it was run: as §1

[15] = tested on: green foxtail (Setaria viridis); assay: as above
How it was run: as §1

[16] = tested on: horseweed (Erigeron canadensis); assay: as above
How it was run: as §1

kochia (Bassia scoparia) [17] = assay: as above
How it was run: as §1

[18] = tested on: oat, wild (wild oat, Avena fatua); assay: as above
How it was run: as §1

[19] = tested on: palmer (palmer amaranth, palmer pigweed, Amaranthus palmeri); assay: as above
How it was run: as §1

[20] = tested on: ragweed (common ragweed, Ambrosia artemisiifolia); assay: as above
How it was run: as §1

[21] = tested on: ryegrass, Italian (italian ryegrass, Lolium multiflorum); assay: as above
How it was run: as §1

soybean (Glycine max) [22] = assay: as above
How it was run: as §1

[23] = tested on: wheat (Triticum aestivum); assay: as above
How it was run: as §1

[24] = tested on: barnyardgrass (Echinochloa crusgalli); assay: Test B flooded paddy test, visual plant response rating 0-100; details: 250 g ai/ha, Flood, applied to paddy water, evaluated after 13 days
How it was run: (§2)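 Treatment occurs at the 2-leaf stage by adding compound to floodwater standing 3 cm above the soil, a level kept for the whole test. Plants stay in the greenhouse 13 days before visual comparison with controls.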

[25] = tested on: ducksalad (Heteranthera limosa); assay: as above; details: 250 g ai/ha, Flood, applied to paddy water, evaluated after 13 days
How it was run: as §2

rice (Oryza sativa) = assay: as above; details: 250 g ai/ha, Flood, applied to paddy water, evaluated after 13 days
How it was run: as §2

[26] = tested on: sedge, umbrella (small-flower umbrella sedge, Cyperus difformis); assay: as above; details: 250 g ai/ha, Flood, applied to paddy water, evaluated after 13 days
How it was run: as §2

[27] = 62 g ai/ha, 0 = no effect, 100 = complete control
[28] = 62 g ai/ha, postemergence, 10 days, 0 = no effect, 100 = complete control
[29] = Postemergence, 16 g ai/ha, greenhouse 10 days, 0 no effect, 100 complete control

SMILES: CC1(C(=O)NC2CC(C(=O)O)C2)CN(c2cc(F)cc(Cl)c2)C(=O)O1 (racemic) [Compound 139]
- Barnyardgrass plant response rating ([1]; 16 g ai/ha, 0 to 100 scale): 10
- Barnyardgrass plant response rating (0-100) [1, 27]: 70
- Blackgrass plant response rating ([2]; 16 g ai/ha, 0 to 100 scale): 20
- Blackgrass plant response rating (0-100) [2, 27]: 80
- Corn plant response rating (corn (Zea mays) [3]; 16 g ai/ha, 0 to 100 scale): 0
- Corn plant response rating (0-100) (corn (Zea mays) [3]; [27]): 90
- Foxtail, Green plant response rating ([4]; 16 g ai/ha, 0 to 100 scale): 30
- Foxtail, Green plant response rating (0-100) [4, 27]: 90
- Kochia plant response rating (kochia (Bassia scoparia) [5]; 16 g ai/ha, 0 to 100 scale): 0
- Kochia plant response rating (0-100) (kochia (Bassia scoparia) [5]; [27]): 90
- Oat, Wild plant response rating ([6]; 16 g ai/ha, 0 to 100 scale): 20
- Oat, Wild plant response rating (0-100) [6, 27]: 80
- Ragweed plant response rating ([7]; 16 g ai/ha, 0 to 100 scale): 0
- Ragweed plant response rating (0-100) [7, 27]: 0
- Ryegrass, Italian plant response rating ([8]; 16 g ai/ha, 0 to 100 scale): 30
- Ryegrass, Italian plant response rating (0-100) [8, 27]: 90
- Soybean plant response rating (soybean (Glycine max) [9]; 16 g ai/ha, 0 to 100 scale): 0
- Soybean plant response rating (0-100) (soybean (Glycine max) [9]; [27]): 0
- Wheat plant response rating ([10]; 16 g ai/ha, 0 to 100 scale): 90
- Wheat plant response rating (0-100) [10, 27]: 90
- Barnyardgrass plant response rating (0-100) [11, 28]: 100
- Barnyardgrass plant response rating (0 to 100 scale) [11, 29]: 90
- Blackgrass plant response rating (0-100) [12, 28]: 100
- Blackgrass plant response rating (0 to 100 scale) [12, 29]: 90
- Corn plant response rating (0-100) (corn (Zea mays) [13]; [28]): 100
- Corn plant response rating (0 to 100 scale) (corn (Zea mays) [13]; [29]): 100
- Galium plant response rating (0-100) [14, 28]: 80
- Galium plant response rating (0 to 100 scale) [14, 29]: 50
- Foxtail, Green plant response rating (0-100) [15, 28]: 90
- Foxtail, Green plant response rating (0 to 100 scale) [15, 29]: 90
- Horseweed plant response rating (0-100) [16, 28]: 50
- Horseweed plant response rating (0 to 100 scale) [16, 29]: 0
- Kochia plant response rating (0-100) (kochia (Bassia scoparia) [17]; [28]): 90
- Kochia plant response rating (0 to 100 scale) (kochia (Bassia scoparia) [17]; [29]): 70
- Oat, Wild plant response rating (0-100) [18, 28]: 90
- Oat, Wild plant response rating (0 to 100 scale) [18, 29]: 70
- Pigweed, Palmer plant response rating (0-100) [19, 28]: 70
- Pigweed, Palmer plant response rating (0 to 100 scale) [19, 29]: 20
- Ragweed plant response rating (0-100) [20, 28]: 40
- Ragweed plant response rating (0 to 100 scale) [20, 29]: 40
- Ryegrass, Italian plant response rating (0-100) [21, 28]: 70
- Ryegrass, Italian plant response rating (0 to 100 scale) [21, 29]: 30
- Soybean plant response rating (0-100) (soybean (Glycine max) [22]; [28]): 60
- Soybean plant response rating (0 to 100 scale) (soybean (Glycine max) [22]; [29]): 60
- Wheat plant response rating (0-100) [23, 28]: 90
- Wheat plant response rating (0 to 100 scale) [23, 29]: 90
- Plant response rating, Barnyardgrass (0 to 100 scale, 0 is no effect and 100 is complete control) [24]: 0
- Plant response rating, Ducksalad (0 to 100 scale, 0 is no effect and 100 is complete control) [25]: 0
- Plant response rating, Rice (0 to 100 scale, 0 is no effect and 100 is complete control) (rice (Oryza sativa)): 0
- Plant response rating, Sedge, Umbrella (0 to 100 scale, 0 is no effect and 100 is complete control) [26]: 0

From patent US20260285850A1, “SUBSTITUTED OXAZOLIDINONES AND IMIDAZOLINONES AS HERBICIDES” (FMC CORPORATION, priority 2023, published 2026)
